Our source for the refractive index values is the NIST ThermoML archive (doi:10.1016/j.jct.2019.03.035).

As a reminder, the refractive index is a measure of how strongly the sample bends light.

A short description of data set [1]: refractive index (other wavelength) (dimensionless). The settings on record: 100 kPa, Liquid, Wavelength=632.8 nm, minimum deviation angle technique.
Data set [2] is described as follows: refractive index (other wavelength) (dimensionless); xn = mol fraction of the nth substance listed. As to conditions: 288.62 K; 100 kPa; Liquid; Wavelength=632.8 nm; minimum deviation angle technique; x2 = 0.

The structures appear in SMILES notation. Numbers after ± are expanded uncertainties.

As for `N#Cc1ccccc1` [benzonitrile], the refractive index in data set [1] (285.47 K) came out at 1.5293 ± 0.0003; in data set [1] (286.4 K) it was 1.5288 ± 0.0003; in data set [1] (287.49 K) it was 1.5283 ± 0.0003; in data set [1] (288.44 K), 1.5278 ± 0.0003; in data set [1] (288.62 K), 1.5277 ± 0.0003; in data set [1] (289.45 K), 1.5274 ± 0.0003. Also, the refractive index in data set [1] (290.7 K) was 1.5268 ± 0.0003; in data set [1] (291.77 K) it was 1.5262 ± 0.0003; in data set [1] (292.66 K), 1.5258 ± 0.0003; in data set [1] (293.89 K) it was 1.5252 ± 0.0003.
On to `CCCCCCCCCC` [decane], for which the refractive index stood at 1.4142 ± 0.0003 in data set [1] (285.51 K); 1.4137 ± 0.0003 in data set [1] (286.56 K); 1.4133 ± 0.0003 in data set [1] (287.57 K); 1.4128 ± 0.0003 in data set [1] (288.6 K); 1.4128 ± 0.0003 in data set [1] (288.62 K); 1.4123 ± 0.0003 in data set [1] (289.75 K). The refractive index in data set [1] (290.67 K) turned out to be 1.4119 ± 0.0003; in data set [1] (291.68 K), 1.4114 ± 0.0003; in data set [1] (292.74 K), 1.411 ± 0.0003; in data set [1] (293.98 K), 1.4104 ± 0.0003.
On to `CCCCCCCCCC` [decane] + N#Cc1ccccc1, for which the refractive index in data set [2] is given as 1.4128 ± 0.0003.
